Assay results from BigSolDB 2.1.

Nc1ccc(S(=O)(=O)Nc2ncccn2)cc1
solubility (mole fraction)
Conditions | in acetone | in chloroform | in ethanol | in isopropanol | in methanol | in n-propanol
294.15 K | 5.96e-05 | 5.47e-06 | 3.8e-05 | 6.53e-05 | 0.000265 | 9.66e-05
298.15 K | 7.34e-05 | 9.26e-06 | 4.8e-05 | 8.18e-05 | 0.000283 | 0.000124
303.15 K | 9.17e-05 | 1.54e-05 | 6.01e-05 | 0.000103 | 0.000311 | 0.000164
308.15 K | 0.000106 | 2.15e-05 | 7e-05 | 0.000123 | 0.000343 | 0.000208
313.15 K | 0.000115 | 2.57e-05 | 7.56e-05 | 0.000134 | 0.000377 | 0.000245
318.15 K | 0.00012 | 2.71e-05 | 7.68e-05 | 0.000143 | 0.000409 | 0.000279
